# Measurements from PMC3993905 (2014).
# Test system: MMP-2
# Test: active MMP-2
# Settings: human, room temperature, up to 6 h
row,cleaved bond,Substance
1,"G-I, 6 h",Ac-KKYGPQGIAGQYKK-NH2
2,"S-L, 6 h",Ac-KKYIPVSLRSGYKK-NH2
